The values below come from patent US11957671B2, “Benzodioxane modulators of leukotriene A4 hydrolase (LTA4H) for prevention and treatment of aging-associated diseases” (Alkahest, Inc., priority 2021, dated 2024).

For test [1], the system named is aged wild type (WT; C57BL/6) mice. Briefly: Radial Arm Water Maze (RAWM). In kind it is in vivo, mouse. The note with it: 10 mg/kg PO daily, after 29 days of treatment. As for the experimental part: The water maze (see, e.g. Alamed J, et al., Two-day radial-arm water maze learning and memory tasks; robust resolution of amyloid-related memory deficits in transgenic mice, Nat. Protoc., 1(4):1671-79 (2006)), was filled with water at least 24 hours prior to the test to equilibrate to 25° C. The water was dyed with white latex paint to make the animals visible for tracking and to allow for the use of a hidden platform. Eight distinct visual cues were placed at the end of each of eight arms of the RAWM inserts. On day 1 animals were subjected to 5 trials each with a visible platform and a 30-minute inter-trial interval. Animals had 60 seconds to reach the platform. […] The goal arm remained constant, and a different start arm was randomly assigned for each of the 5 trials so that mouse started in every arm once except for the two arms directly across from the platform. The goal arm was switched after every two mice and balanced between all treatment groups. After each trial the mice were placed in an empty cage with blue pads and allowed to dry off under a heat lamp before being placed back into their home cage. Testing day was 48 hours after training, when animals were subjected to the same test of 5 trials each and a 30-minute inter-trial interval, but with a hidden platform. Animals were scored for the number of errors (entry into a non-goal arm) and for latency to reach the platform. All trials were recorded using ANY-maze software.
(§1) Three independent cohorts of aged wild type (WT; C57BL/6) mice between twenty to twenty-two months of age (20-22 mo) were homogenized into two (2) groups by body weight, total distance travelled in the open field test, and average velocity in the open field test. Group 1 was administered vehicle control PO daily. Group 2 was administered 10 mg/kg of the LTA4H inhibitor Compound 1 PO daily. Both groups were dosed for either 10 days or 4 weeks daily. Behavioral assays were run during the last week of dosing and animals were sacrificed at the end of the study for histological and molecular assays.

The test system is the same in test [2]. Briefly: qPCR of hippocampal gene expression. In kind it is in vivo, mouse.
Text: Brains were collected following saline perfusion and separated by mid-sagittal slice with one-half dissected into hippocampus and cortex and then snap frozen on dry ice. RNA was isolated from brain tissue using the RNAeasy Qiagen Kit according to the manufacturer's instruction, briefly, tissue was homogenized using an Omni Bead Ruptor in RLT buffer, RNA was bound to RNA isolation column, washed and eluted. Contaminating DNA was removed by DNAse digestion and cDNA was generated using the Life Technologies SuperScript III Kit. A master mix for qPCR was made using the appropriate forward and reverse primers, and SYBR green reagent or TaqMan reagent. The reaction was run on a Life Technologies QuantStudio Real-Time PCR System and analyzed using the std ddCT protocol on the QuantStudio6 software.
as §1
On the technique in general: Quantitative PCR measures a nucleic acid by following its amplification.

Test [3] concerns Transgenic Notch3R169C mice. Briefly: CADASIL Mouse Model, Example 10. In kind it is in vivo. The note with it: 1 mg/kg PO bid for four months. The protocol: Transgenic Notch3^R169C mice are obtained along with transgenic Notch3^WT and/or wild type mice as described previously (Ghosh M, et al., Ann Neurol., 78(6):887-900 (2015); Rajani R M, et al., Acta Neuropathologica Comm., 7(187) (2019); and Joutel A, et al., J. Clin. Invest., 120(2):433-45 (2010), herein incorporated by reference in their entirety). Twenty Notch3R169c mice and 10 littermate control 5-month-old wild type mice are dosed with Vehicle or Compound 1 at 1 mg/kg PO bid for four months. Mice are anesthetized and blood and tissues are collected for further analysis.
Transgenic Notch3^R169C mice treated with Vehicle or Compound as described previously in section A (Experimental Procedures supra) have blood collected via cardiac puncture in syringes pre-filled with Heparin. Brains are collected following saline and Heparin infusion and separated by mid-sagittal slice. One half of the brain is drop fixed in 4% PFA and 24 hours later, the brain is changed into a solution of 15% sucrose. A secondary change to 30% sucrose is performed 48 hours after initial fixation in PFA.
Brains are then sectioned to 50 micrometers in thickness using a vibratome and placed on a slide for immunostaining and stained with PDGFRβ and LECTIN antibodies as described previously (Ghosh supra) to show pericyte coverage. The number of PDGFRβ positive pericytes per square millimeter of selected field area in the cortex is analyzed by randomly selecting four fields in nonadjacent sections at approximately 100 μm intervals.
Albumin and fibrinogen presence is measured as a positive signal in the brain parenchyma. The signals are quantified as described previously (Ghosh supra). Transgenic mice treated with Vehicle has increased albumin and fibrinogen leakiness into the brain parenchyma compared to Vehicle treated wild-type controls.
GFAP and AQP4 markers for astrocytes are measured to determine the presence of astrocyte end-feet. Transgenic mice treated with Vehicle is reduced GFAP and AQP4 compared with Vehicle treated wild-type controls. […] AQP4 and GFAP are markers for astrocyte, which make up an important part of the neurovascular unit and are lost in CADASIL mouse models and human patients.

Structures are written as SMILES.

Turning to `O=C(O)C1CCN(Cc2ccc([C@H]3COc4ccccc4O3)cc2)CC1` [Example 1, 1-{4-[(2S)-2,3-dihydro-1,4-benzodioxin-2-yl]benzyl}piperidine-4-carboxylic acid], in test [1], the “average number of errors during the last trial” value is recorded as “significant decreased in number of errors”; the “latency to find the hidden platform, last trial” value is “trend towards a reduction in time to find the platform”; the “number of errors during the training and testing phases” value is listed as “small, but significant improvement in number of errors”. Moreover, the “dcx hippocampal gene expression” value in test [2] (4 weeks of dosing) is recorded as “increased dcx hippocampal gene expression”. In test [2] (10 days and 4 weeks of dosing), the “h2d1 hippocampal gene expression” value is reported as “trends towards reduced h2d1 hippocampal gene expression”. For the same compound, in test [2] (10 days of dosing), the “creb1 hippocampal gene expression” value was “increased creb1 hippocampal gene expression”, the “egr1 hippocampal gene expression” value is “increased egr1 hippocampal gene expression”, the “iba1 hippocampal gene expression” value is reported as “trends towards reduced iba1 hippocampal gene expression” and the “il1b hippocampal gene expression” value is “trends towards reduced il1b hippocampal gene expression”. Besides, in test [3], the “GFAP and AQP4 signal at vessels in the cortex” value is “increased positive signal at Lectin-positive vessels”; the “additional blood-brain barrier markers in cortices” value is reported as “significant levels of improvement”; the “albumin and fibrinogen in brain parenchyma” value was “reduced albumin and fibrinogen”; the “plasma levels of LTB4” value is recorded as “reduction in plasma levels of LTB4”. Moreover, the “pericyte coverage and number in cortex” value in test [3] (versus vehicle-treated transgenic mice) is “increase in pericyte coverage and number”.
